US11753407B2, “Compounds for treating spinal muscular atrophy” (PTC Therapeutics, Inc., priority 2012, dated 2023)

Tests used:
[1] = system: Smn protein in SMA patient fibroblast cells (GM03813); test: Smn protein assay in cultured cells (SMN HTRF); assay type: cell-based, human; conditions: SMA patient fibroblast cells, 48 hours; for EC1.5x for Smn protein expression: 7-point concentration curve, SMN HTRF, concentration producing 1.5 times Smn protein vs DMSO vehicle control; for maximum fold (Fold) increase of Smn protein: 7-point concentration data, fold relative to vehicle control
How it was run: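 SMA patient fibroblasts (5,000/well, DMEM-10% FBS) treated 48 h at 37° C with 7-point, 3.16-fold compound series in triplicate; lysates read by SMN HTRF (665/620 nm ratio). Fold Smn increase over DMSO vehicle derived; EC1.5× is concentration giving 1.5-fold Smn, with maximum fold also reported.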

[2] = system: SMN2 minigene mRNA (SMN2-A minigene) in HEK293H cells; test: SMN2 minigene mRNA splicing RT-qPCR assay in cultured cells; assay type: cell-based, human; conditions: Homo sapiens, HEK293-H; concentration increasing full length SMN2 mRNA 1.5-fold relative to vehicle-treated cells; HEK293H cells with SMN2-A minigene, 24 hours, 7-point concentration data; read-out: EC1.5x for production of full length SMN2 mRNA
How it was run: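 HEK293H cells stably carrying SMN2-A minigene treated with compounds (7-point, 3.16-fold dilutions, duplicates) for 24 h at 37 °C. Full-length exon 7-containing minigene mRNA measured by multiplex RT-qPCR with GAPDH, normalized and expressed relative to vehicle (modified ΔΔCt); EC1.5× is concentration giving 1.5-fold increase.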

Row | SMILES | melting point | EC1.5x for Smn protein expression [1] | maximum fold (Fold) increase of Smn protein [1] | EC (1.5-fold increase) [2]
1 | Cc1cn2cc(-c3cc(=O)n4cc(C5=CCNCC5)ncc4n3)cc2c(C)n1.Cl.Cl [Compound 413, 2-(1,3-dimethylpyrrolo[1,2-a]pyrazin-7-yl)-7-(1,2,3,6-tetrahydropyridin-4-yl)-4H-pyrazino[1,2-a]pyrimidin-4-one hydrochloride (1:2)] | > 300 °C | **** (an EC1.5x≤0.3 μM is indicated by four stars (****)) | **** (a fold increase between >1.5 and ≤1.65 is indicated by four stars (****)) | < 0.1 µM
2 | CCc1cc(C2=CCN(C)CC2)cn2c(=O)cc(-c3ccc(OC)c(OC)c3)nc12 [Compound 415, 2-(3,4-dimethoxyphenyl)-9-ethyl-7-(1-methyl-1,2,3,6-tetrahydropyridin-4-yl)-4H-pyrido[1,2-a]pyrimidin-4-one] | 177 to 182 °C | – | *** (a fold increase between >1.35 and ≤1.5 is indicated by three stars (***)) | < 0.1 µM
3 | COc1ccc(-c2cc(=O)n3cc(N4CCC(NC(C)C)CC4)cc(C)c3n2)cc1OC [Compound 416, 2-(3,4-dimethoxyphenyl)-9-methyl-7-[4-(propan-2-ylamino)piperidin-1-yl]-4H-pyrido[1,2-a]pyrimidin-4-one] | 178 to 183 °C | ** (an EC1.5× between >1 μM and ≤3 μM is indicated by two stars (**)) | *** (a fold increase between >1.35 and ≤1.5 is indicated by three stars (***)) | < 0.1 µM
4 | CCc1cc(C2=CCN(CC)CC2)cn2c(=O)cc(-c3ccc(OC)c(OC)c3)nc12 [Compound 418, 2-(3,4-dimethoxyphenyl)-9-ethyl-7-(1-ethyl-1,2,3,6-tetrahydropyridin-4-yl)-4H-pyrido[1,2-a]pyrimidin-4-one] | 148 to 153 °C | – | *** (a fold increase between >1.35 and ≤1.5 is indicated by three stars (***)) | < 0.1 µM
5 | Cc1nc2ccc(-c3cc(=O)n4cc(C5=CCN(C)CC5)ncc4n3)cc2o1 [Compound 422, 2-(2-methyl-1,3-benzoxazol-6-yl)-7-(1-methyl-1,2,3,6-tetrahydropyridin-4-yl)-4H-pyrazino[1,2-a]pyrimidin-4-one] | 240 to 242 °C | ** (an EC1.5× between >1 μM and ≤3 μM is indicated by two stars (**)) | *** (a fold increase between >1.35 and ≤1.5 is indicated by three stars (***)) | < 0.1 µM
6 | CCN1CC=C(c2cn3c(=O)cc(-c4ccc5nc(C)oc5c4)nc3cn2)CC1 [Compound 423, 7-(1-ethyl-1,2,3,6-tetrahydropyridin-4-yl)-2-(2-methyl-1,3-benzoxazol-6-yl)-4H-pyrazino[1,2-a]pyrimidin-4-one] | 225 to 227 °C | *** (an EC1.5× between >0.3 μM and ≤1 μM is indicated by three stars (***)) | **** (a fold increase between >1.5 and ≤1.65 is indicated by four stars (****)) | < 0.1 µM
7 | Cc1cn2cc(-c3cc(=O)n4cc(C5=CCNCC5)ccc4n3)ccc2n1 [Compound 429, 2-(2-methylimidazo[1,2-a]pyridin-6-yl)-7-(1,2,3,6-tetrahydropyridin-4-yl)-4H-pyrido[1,2-a]pyrimidin-4-one] | 206 to 208 °C | **** (an EC1.5x≤0.3 μM is indicated by four stars (****)) | **** (a fold increase between >1.5 and ≤1.65 is indicated by four stars (****)) | < 0.1 µM
8 | Cc1cn2cc(-c3cc(=O)n4cc(C5=CCN(C)CC5)ccc4n3)ccc2n1 [Compound 430, 2-(2-methylimidazo[1,2-a]pyridin-6-yl)-7-(1-methyl-1,2,3,6-tetrahydropyridin-4-yl)-4H-pyrido[1,2-a]pyrimidin-4-one] | 137 to 140 °C | **** (an EC1.5x≤0.3 μM is indicated by four stars (****)) | **** (a fold increase between >1.5 and ≤1.65 is indicated by four stars (****)) | < 0.1 µM
9 | CCN1CC=C(c2ccc3nc(-c4ccc5nc(C)cn5c4)cc(=O)n3c2)CC1 [Compound 431, 7-(1-ethyl-1,2,3,6-tetrahydropyridin-4-yl)-2-(2-methylimidazo[1,2-a]pyridin-6-yl)-4H-pyrido[1,2-a]pyrimidin-4-one] | 220 to 223 °C | **** (an EC1.5x≤0.3 μM is indicated by four stars (****)) | ***** (a fold increase >1.65 is indicated by five stars (*****)) | < 0.1 µM

Continued, in another order:

Row | melting point | SMILES | EC1.5x for Smn protein expression [1] | maximum fold (Fold) increase of Smn protein [1] | EC (1.5-fold increase) [2]
10 | 254 to 258 °C | Cc1cn2cc(-c3cc(=O)n4cc(N5CCN(C6CC6)CC5)ccc4n3)cc(F)c2n1 [Compound 412, 7-(4-cyclopropylpiperazin-1-yl)-2-(8-fluoro-2-methylimidazo[1,2-a]pyridin-6-yl)-4H-pyrido[1,2-a]pyrimidin-4-one] | **** (an EC1.5x≤0.3 μM is indicated by four stars (****)) | ***** (a fold increase >1.65 is indicated by five stars (*****)) | < 0.1 µM
11 | 183 to 189 °C | COc1ccc(-c2cc(=O)n3cc(N4CCN5CCC[C@H]5C4)cc(C)c3n2)cc1OC [Compound 417, 2-(3,4-dimethoxyphenyl)-7-[(8aS)-hexahydropyrrolo[1,2-a]pyrazin-2(1H)-yl]-9-methyl-4H-pyrido[1,2-a]pyrimidin-4-one] | ** (an EC1.5× between >1 μM and ≤3 μM is indicated by two stars (**)) | **** (a fold increase between >1.5 and ≤1.65 is indicated by four stars (****)) | 0.1 to 0.3 µM
12 | 219 to 224 °C | COc1ccc(-c2cc(=O)n3cc(N4CCC(N5CCOCC5)CC4)cc(C)c3n2)cc1OC [Compound 419, 2-(3,4-dimethoxyphenyl)-9-methyl-7-[4-(morpholin-4-yl)piperidin-1-yl]-4H-pyrido[1,2-a]pyrimidin-4-one] | – | ** (a fold increase between >1.2 and ≤1.35 is indicated by two stars (**)) | 0.1 to 0.3 µM
13 | 202 to 204 °C | Cc1cn2nc(-c3cc(=O)n4cc(N5CCNCC5)ccc4n3)cc2cn1 [Compound 420, 2-(6-methylpyrazolo[1,5-a]pyrazin-2-yl)-7-(piperazin-1-yl)-4H-pyrido[1,2-a]pyrimidin-4-one] | **** (an EC1.5x≤0.3 μM is indicated by four stars (****)) | **** (a fold increase between >1.5 and ≤1.65 is indicated by four stars (****)) | < 0.1 µM
14 | 222 to 224 °C | Cc1nc2ccc(-c3cc(=O)n4cc(C5CCNCC5)ccc4n3)cc2s1 [Compound 424, 2-(2-methyl-1,3-benzothiazol-6-yl)-7-(piperidin-4-yl)-4H-pyrido[1,2-a]pyrimidin-4-one] | **** (an EC1.5x≤0.3 μM is indicated by four stars (****)) | ***** (a fold increase >1.65 is indicated by five stars (*****)) | < 0.1 µM
15 | 215 to 218 °C | Cc1cn2nc(-c3cc(=O)n4cc(N5CCC(N6CCCC6)CC5)ccc4n3)cc2c(C)n1 [Compound 425, 2-(4,6-dimethylpyrazolo[1,5-a]pyrazin-2-yl)-7-[4-(pyrrolidin-1-yl)piperidin-1-yl]-4H-pyrido[1,2-a]pyrimidin-4-one] | **** (an EC1.5x≤0.3 μM is indicated by four stars (****)) | ***** (a fold increase >1.65 is indicated by five stars (*****)) | < 0.1 µM
16 | 236 to 238 °C | Cc1cn2nc(-c3cc(=O)n4cc(N5CCC(N6CCCCC6)CC5)ccc4n3)cc2c(C)n1 [Compound 426, 7-(1,4′-bipiperidin-1′-yl)-2-(4,6-dimethylpyrazolo[1,5-a]pyrazin-2-yl)-4H-pyrido[1,2-a]pyrimidin-4-one] | *** (an EC1.5× between >0.3 μM and ≤1 μM is indicated by three stars (***)) | ***** (a fold increase >1.65 is indicated by five stars (*****)) | 0.3 to 1 µM
17 | 198 to 200 °C | Cc1cn2nc(-c3cc(=O)n4cc(N5CCC(N6CCN(C)CC6)CC5)ccc4n3)cc2c(C)n1 [Compound 427, 2-(4,6-dimethylpyrazolo[1,5-a]pyrazin-2-yl)-7-[4-(4-methylpiperazin-1-yl)piperidin-1-yl]-4H-pyrido[1,2-a]pyrimidin-4-one] | * (An EC1.5× for Smn protein expression between >3 μM and ≤10 μM is indicated by one star (*)) | *** (a fold increase between >1.35 and ≤1.5 is indicated by three stars (***)) | 1 to 3 µM
18 | 192 to 195 °C | Cc1cn2nc(-c3cc(=O)n4cc(N5CCC(N6CCOCC6)CC5)ccc4n3)cc2c(C)n1 [Compound 428, 2-(4,6-dimethylpyrazolo[1,5-a]pyrazin-2-yl)-7-[4-(morpholin-4-yl)piperidin-1-yl]-4H-pyrido[1,2-a]pyrimidin-4-one] | ** (an EC1.5× between >1 μM and ≤3 μM is indicated by two stars (**)) | *** (a fold increase between >1.35 and ≤1.5 is indicated by three stars (***)) | 0.3 to 1 µM
